US10071968B2 (priority 2014, dated 2018)

Biological target: human σ1 receptor (Homo sapiens, UniProt Q99720)
Test: Human σ1 receptor radioligand assay ([3H](+)-pentazocine, transfected HEK-293 membranes)
Assay type: binding
Design: μ and σ1 dual binding: key to the marks not given beside the values
Conditions: one combined class for Ki-σ1 (A1) and Ki-μ (human μ-opioid receptor, A2)
Protocol: To investigate binding properties of test compounds to human σ1 receptor, transfected HEK-293 membranes and [^3H](+)-pentazocine (Perkin Elmer, NET-1056), as the radioligand, were used. The assay was carried out with 7 μg of membrane suspension, 5 nM of [^3H](+)-pentazocine in either absence or presence of either buffer or 10 μM Haloperidol for total and non-specific binding, respectively. Binding buffer contained Tris-HCl 50 mM at pH 8. Plates were incubated at 37° C. for 120 minutes. After the incubation period, the reaction mix was then transferred to MultiScreen HTS, FC plates (Millipore), filtered and plates were washed 3 times with ice-cold 10 mM Tris-HCL (pH7.4). Filters were dried and counted at approximately 40% efficiency in a MicroBeta scintillation counter (Perkin-Elmer) using EcoScint liquid scintillation cocktail

Chain of human σ1 receptor (Q99720 whole entry): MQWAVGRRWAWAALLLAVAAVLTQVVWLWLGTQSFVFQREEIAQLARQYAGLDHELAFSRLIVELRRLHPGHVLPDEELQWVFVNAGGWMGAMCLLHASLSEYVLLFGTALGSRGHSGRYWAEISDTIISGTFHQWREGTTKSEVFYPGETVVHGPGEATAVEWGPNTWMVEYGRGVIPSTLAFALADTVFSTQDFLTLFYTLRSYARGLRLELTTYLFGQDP

SMILES	μ and σ1 dual binding
CN(CCOC(c1cncs1)c1ccnn1C)Cc1cccc(F)c1 (stereo not shown) [Example 49, N-(3-fluorobenzyl)-N-methyl-2-((1-methyl-1H-pyrazol-5-yl)(thiazol-5-yl)methoxy)ethanamine]	++
CC(C)N(CCOC(c1ccccc1)c1ccnn1C)Cc1cccc(F)c1 (stereo not shown) [Example 29, N-(3-fluorobenzyl)-N-(2-((1-methyl-1H-pyrazol-5-yl)(phenyl)methoxy)ethyl)propan-2-amine]	++
CN(CCOC(c1ccccc1)c1ccnn1C)Cc1ccc(F)cc1 (stereo not shown) [Example 8, N-(4-fluorobenzyl)-N-methyl-2-((1-methyl-1H-pyrazol-5-yl)(phenyl)methoxy)ethanamine]	++
CC(c1ccccc1)N(C)CCOC(c1ccccc1)c1ccnn1C (stereo not shown) [Example 16, N-methyl-2-((1-methyl-1H-pyrazol-5-yl)(phenyl)methoxy)-N-(1-phenylethyl)ethanamine]	++
COc1cccc(CN(C)CCOC(c2ccccc2)c2ccnn2C)c1 (stereo not shown) [Example 23, N-(3-methoxybenzyl)-N-methyl-2-((1-methyl-1H-pyrazol-5-yl)(phenyl)methoxy)ethanamine]	++
CN(CCOC(c1cccnc1)c1ccnn1C)Cc1cccc(F)c1 (stereo not shown) [Example 46, N-(3-fluorobenzyl)-N-methyl-2-((1-methyl-1H-pyrazol-5-yl)(pyridin-3-yl)methoxy)ethanamine]	++
CN(CCO[C@H](c1ccccc1)c1ccnn1C)Cc1ccccc1 [Example 9, (R)-N-benzyl-N-methyl-2-((1-methyl-1H-pyrazol-5-yl)(phenyl)methoxy)ethanamine]	++
COc1ccccc1C(OCCN(C)Cc1ccccc1)c1ccnn1C (stereo not shown) [Example 39, N-benzyl-2-((2-methoxyphenyl)(1-methyl-1H-pyrazol-5-yl)methoxy)-N-methylethanamine]	++
CC(C)N(CCOC(c1ccccc1)c1ccnn1C)Cc1ccccc1 (stereo not shown) [Example 27, N-benzyl-N-(2-((1-methyl-1H-pyrazol-5-yl)(phenyl)methoxy)ethyl)propan-2-amine]	++
CN(CCOC(c1ccc(O)cc1)c1ccnn1C)Cc1ccccc1 (stereo not shown) [Example 51, 4-((2-(benzyl(methyl)amino)ethoxy)(1-methyl-1H-pyrazol-5-yl)methyl)phenol]	++
CN(CCO[C@H](c1ccccc1)c1ccnn1C)Cc1ccc(F)cc1 [Example 10, (R)-N-(4-fluorobenzyl)-N-methyl-2-((1-methyl-1H-pyrazol-5-yl)(phenyl)methoxy)ethanamine]	++
COc1ccccc1C(OCCN(C)Cc1cccc(F)c1)c1ccnn1C (stereo not shown) [Example 48, N-(3-fluorobenzyl)-2-((2-methoxyphenyl)(1-methyl-1H-pyrazol-5-yl)methoxy)-N-methylethanamine]	++
CN(CCO[C@H](c1ccccc1)c1ccnn1C)CCc1ccccc1 [Example 11, (R)-N-methyl-2-((1-methyl-1H-pyrazol-5-yl)(phenyl)methoxy)-N-phenethylethanamine]	++
Cc1ccsc1[C@@H](OCCN(C)Cc1ccccc1)c1ccnn1C [Example 30, (S)-N-benzyl-N-methyl-2-((1-methyl-1H-pyrazol-5-yl)(3-methylthiophen-2-yl)methoxy)ethanamine]	++

Same assay, conditions: one combined class for Ki-σ1 (A1) and Ki-μ (human μ-opioid receptor, A2); read-out: μ and σ1 dual binding

SMILES	Ki
CN(CCOC(c1ccccn1)c1ccnn1C)Cc1ccccc1 (stereo not shown) [Example 40, N-benzyl-N-methyl-2-((1-methyl-1H-pyrazol-5-yl)(pyridin-2-yl)methoxy)ethanamine]	> 500 nM
CN(CC[S+]([O-])C(c1ccccc1)c1ccnn1C)Cc1ccccc1 (stereo not shown) [Example 34, N-Benzyl-N-methyl-2-((1-methyl-1H-pyrazol-5-yl)(phenyl)methylsulfinyl)ethanamine]	> 500 nM
CN(CCSC(c1ccccc1)c1ccnn1C)Cc1ccccc1 (stereo not shown) [Example 33, N-benzyl-N-methyl-2-((1-methyl-1H-pyrazol-5-yl)(phenyl)methylthio)ethanamine]	< 500 nM
CN(CCOC(c1ccccc1)c1ccnn1C)Cc1ccc(C(F)(F)F)nc1 (stereo not shown) [Example 3, N-methyl-2-((1-methyl-1H-pyrazol-5-yl)(phenyl)methoxy)-N-((6-(trifluoromethyl)pyridin-3-yl)methyl)ethanamine]	> 500 nM
CN(CCO[C@@H](c1ccccc1)c1ccnn1C)CCc1ccccc1 [Example 19, (S)-N-methyl-2-((1-methyl-1H-pyrazol-5-yl)(phenyl)methoxy)-N-phenethylethanamine]	< 500 nM
CN(CCOC(c1cncs1)c1ccnn1C)Cc1ccccc1 (stereo not shown) [Example 41, N-benzyl-N-methyl-2-((1-methyl-1H-pyrazol-5-yl)(thiazol-5-yl)methoxy)ethanamine]	> 500 nM
CN(CCOC(c1ccccc1O)c1ccnn1C)Cc1ccccc1 (stereo not shown) [Example 52, 2-((2-(benzyl(methyl)amino)ethoxy)(1-methyl-1H-pyrazol-5-yl)methyl)phenol]	< 500 nM
CN(CCOC(c1ccccc1)c1ccnn1C)CCc1ccccc1 (stereo not shown) [Example 7, N-methyl-2-((1-methyl-1H-pyrazol-5-yl)(phenyl)methoxy)-N-phenethylethanamine]	< 500 nM
